From US20250009745A1, “CDK INHIBITOR” (SHANGHAI QILU PHARMACEUTICAL RESEARCH AND DEVELOPMENT …, priority 2021, published 2025)
Where two headings read alike, the source gives them in different places.

Experiments:
Assay in all cases: CDK enzymology experiment in vitro, capillary mobility shift assay (MSA)
Type in all cases: biochemical
CDK6 = target: T1, CDK6 (Homo sapiens, UniProt Q00534)
T1 construct: purchased Carna Company
Description: (§1) CDK1/CDK2/CDK4/CDK6/CDK7/CDK9 were purchased from Carna Company; Carliper substrate CTD3/substrate 18/substrate 8 were purchased from Gil Biochemical Company; Dinaciclib/Palbociclib were purchased from Selleckchem Company; DMSO was purchased from Sigma Company; 384-well plates were purchased from Corning Company.
• (1) Preparation of 1×Kinase buffer. • (2) Preparation of compound concentration gradient: Test concentration of the test compound was started at 1 μM, 10 μM or 30 μM, 3-fold dilution, 10 concentrations, detected in duplicate. […] Liquid handler Echo 550 was used to transfer 250 nL of 100-fold final concentration of the compound to the target plate 384-well plate. […] The 384-well plate was centrifuged at 1000 rpm for 30 seconds, and shaken to mix uniformly. • (10) The conversion rate was read with Caliper EZ Reader.
(§2) Where, conversion %_sample is the readings of conversion rate of the sample; conversion %_min: the average value of negative control wells, representing the readings of conversion rate of wells without enzyme activity; conversion %_max: the average value of positive control wells, representing the readings of conversion rate of wells without compound inhibition.
(§3) Taking the log value of the concentration as the X-axis, and the percentage inhibition rate as the Y-axis, the dose-effect curve was fitted using the log(inhibitor) vs. response—Variable slope of the analysis software GraphPad Prism 5 so as to obtain the IC50 value of each compound on the enzyme activity.
(§4) Y=Bottom+(Top−Bottom)/(1+10^((Log IC50−X)*HillSlope)). Calculation formula: […]

CDK2 = target: T2, CDK2 (Homo sapiens, UniProt P24941); details: read-out: CDK2 (nM) inhibitory IC50
T2 construct: purchased Carna Company
Description: as §1
(§5) • (1) Preparation of 1×Kinase buffer. • (2) Preparation of compound concentration gradient: Test concentration of the test compound was started at 1 μM, 10 μM or 30 μM, 3-fold dilution, 10 concentrations, detected in duplicate. The test compound was diluted to a 100-fold final concentration with 100% DMSO solution in a 384 source plate. Liquid handler Echo 550 was used to transfer 250 nL of 100-fold final concentration of the compound to the target plate 384-well plate. […] The 384-well plate was centrifuged at 1000 rpm for 30 seconds, and shaken to mix uniformly. • (10) The conversion rate was read with Caliper EZ Reader.
as §2, §3, §4

CDK4 = target: T3, CDK4 (Homo sapiens, UniProt P11802); details: read-out: CDK4 (nM) inhibitory IC50
T3 construct: purchased Carna Company
T3 sequence (P11802 whole entry): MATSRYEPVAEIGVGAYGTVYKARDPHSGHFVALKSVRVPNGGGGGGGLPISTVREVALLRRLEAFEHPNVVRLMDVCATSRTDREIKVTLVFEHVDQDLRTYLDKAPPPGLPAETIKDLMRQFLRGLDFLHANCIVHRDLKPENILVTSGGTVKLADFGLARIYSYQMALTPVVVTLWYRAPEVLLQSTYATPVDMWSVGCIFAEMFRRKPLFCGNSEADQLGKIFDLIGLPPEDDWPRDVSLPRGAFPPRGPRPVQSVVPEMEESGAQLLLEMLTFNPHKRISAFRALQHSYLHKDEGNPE
T3 sequence (P30281 whole entry partner): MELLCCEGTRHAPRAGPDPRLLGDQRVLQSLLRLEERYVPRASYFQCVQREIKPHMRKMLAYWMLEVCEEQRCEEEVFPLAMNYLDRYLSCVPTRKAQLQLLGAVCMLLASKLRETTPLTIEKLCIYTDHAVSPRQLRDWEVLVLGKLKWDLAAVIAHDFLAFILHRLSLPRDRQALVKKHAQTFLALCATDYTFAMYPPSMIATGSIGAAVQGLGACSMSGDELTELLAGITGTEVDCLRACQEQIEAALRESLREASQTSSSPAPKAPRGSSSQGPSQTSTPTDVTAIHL
Description: as §1, §5, §2, §3, §4

[1] = read-out: CDK6 (nM) inhibitory IC50

T1 sequence (Q00534 whole entry): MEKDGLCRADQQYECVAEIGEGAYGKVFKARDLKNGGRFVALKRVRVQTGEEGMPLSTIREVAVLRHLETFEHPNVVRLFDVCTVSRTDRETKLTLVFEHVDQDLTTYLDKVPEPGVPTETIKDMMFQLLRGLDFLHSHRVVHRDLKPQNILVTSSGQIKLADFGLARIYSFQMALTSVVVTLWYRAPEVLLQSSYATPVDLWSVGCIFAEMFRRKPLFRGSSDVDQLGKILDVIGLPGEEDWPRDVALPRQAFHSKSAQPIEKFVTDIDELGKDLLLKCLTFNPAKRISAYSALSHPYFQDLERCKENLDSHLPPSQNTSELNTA
T1 sequence (P30281 whole entry partner): as the sequence (P30281 whole entry partner) above

SMILES	IC50 (CDK6; [1]) [nM]	IC50 (CDK2) [nM]	IC50 (CDK4) [nM]	IC50 (CDK6) [nM]
N#Cc1cnc(NC2CCN(S(=O)(=O)c3ccc(C4=CCNCC4)cc3)CC2)nc1N[C@H]1CCOC1 [Compound 92]	0.5 to 2.5	2.5 to 10	2.5 to 10	
O=S(=O)(c1ccc(C2=CCNCC2)cc1)N1CCC(Nc2ncc(C(F)(F)F)c(N[C@H]3CCOC3)n2)CC1 [Compound 93]	0.5 to 2.5	0.5 to 2.5	2.5 to 10	
N#Cc1cnc(NC2CCN(S(=O)(=O)c3ccc(N4CCOCC4)cc3)CC2)nc1NC1CCCC1 [Compound 94]	10 to 50	0.5 to 2.5	2.5 to 10	
N#Cc1cnc(NC2CCN(S(=O)(=O)c3ccc(C4CCNCC4)cc3)CC2)nc1NC1CCCC1 [Compound 101]	0.5 to 2.5	0.5 to 2.5	0.5 to 2.5	
N#Cc1cnc(NC2CCN(S(=O)(=O)c3ccc(N4CCNC(=O)C4)cc3)CC2)nc1NC1CCCC1 [Compound 103]	0.5 to 2.5	0.5 to 2.5	2.5 to 10	
N#Cc1cnc(NC2CCN(S(=O)(=O)c3ccc(C4=CCNCC4)cc3)CC2)nc1O[C@H]1CCOC1 [Compound 104]	0.5 to 2.5	0.5 to 2.5	2.5 to 10	
N#Cc1cnc(NC2CCN(S(=O)(=O)c3ccc(N4CCC(O)CC4)cc3)CC2)nc1NC1CCCC1 [Compound 107]	0.5 to 2.5	< 0.5	0.5 to 2.5	
Cn1cc(S(=O)(=O)N2CCC(Nc3ncc(C#N)c(NC4(C)CCCC4)n3)CC2)cn1 [Compound 118]	0.5 to 2.5	0.5 to 2.5	0.5 to 2.5	
O=S(=O)(c1cnn(C2CCNCC2)c1)N1CCC(Nc2ncc(C(F)(F)F)c(O[C@H]3CCOC3)n2)CC1 [Compound 119]	0.5 to 2.5	< 0.5	0.5 to 2.5	
O=S(=O)(c1ccc(C2=CCNCC2)c(F)c1)N1CCC(Nc2ncc(C(F)(F)F)c(O[C@H]3CCOC3)n2)CC1 [Compound 121]	0.5 to 2.5	< 0.5	0.5 to 2.5	
Nc1ccc(S(=O)(=O)N2CCC(Nc3ncc(C(F)(F)F)c(O[C@H]4CCOC4)n3)CC2)cn1 [Compound 123]	10 to 50	< 0.5	2.5 to 10	
O=S(=O)(c1ccc(C2CCNCC2)cc1)N1CCC(Nc2ncc(C(F)(F)F)c(O[C@H]3CCOC3)n2)CC1 [Compound 130]	0.5 to 2.5	< 0.5	0.5 to 2.5	
N#Cc1cnc(NC2CCN(S(=O)(=O)c3ccc(C4=CCNCC4)cc3)CC2)nc1NC1CCCC1(F)F (stereo not drawn) [Compound 135]	0.5 to 2.5	0.5 to 2.5	0.5 to 2.5	
O=S(=O)(c1ccc(C2=CCNCC2)cc1)N1CCC(Nc2ncc(C(F)(F)F)c(NC3CCCC3(F)F)n2)CC1 (stereo not drawn) [Compound 136]	0.5 to 2.5	0.5 to 2.5	2.5 to 10	
O=S(=O)(c1ccc(C2CCNCC2)cc1)N1CCC(Nc2ncc(C(F)(F)F)c(NC3CCCC3(F)F)n2)CC1 (stereo not drawn) [Compound 137]	0.5 to 2.5	0.5 to 2.5	0.5 to 2.5	
N#Cc1cnc(NC2CCN(S(=O)(=O)c3ccc(C4CCNCC4)cc3)CC2)nc1NC1CCCC1(F)F (stereo not drawn) [Compound 138]	0.5 to 2.5	0.5 to 2.5	0.5 to 2.5	
O=S(=O)(c1ccc(N2CC[C@@H](O)C2)cc1)N1CCC(Nc2ncc(C(F)(F)F)c(O[C@H]3CCOC3)n2)CC1 [Compound 140]	0.5 to 2.5	0.5 to 2.5	0.5 to 2.5	
N#CC1CCN(c2ccc(S(=O)(=O)N3CCC(Nc4ncc(C(F)(F)F)c(O[C@H]5CCOC5)n4)CC3)cc2)CC1 [Compound 143]	10 to 50	0.5 to 2.5	2.5 to 10	
O=S(=O)(c1ccc(C2CCNC2)cc1)N1CCC(Nc2ncc(C(F)(F)F)c(O[C@H]3CCOC3)n2)CC1 (stereo partly drawn) [Compound 145]	0.5 to 2.5	< 0.5	0.5 to 2.5	
Cc1cc(S(=O)(=O)N2CCC(Nc3ncc(C(F)(F)F)c(O[C@H]4CCOC4)n3)CC2)ccc1C1CCNCC1 [Compound 155]	0.5 to 2.5	< 0.5	0.5 to 2.5	
CN(C)CCn1cc(S(=O)(=O)N2CCC(Nc3ncc(C(F)(F)F)c(O[C@H]4CCOC4)n3)CC2)cn1 [Compound 157]	10 to 50	< 0.5	2.5 to 10	

SMILES	IC50 (CDK6; [1]) [nM]	IC50 (CDK2) [nM]	IC50 (CDK4) [nM]	IC50 (CDK6) [nM]
O=S(=O)(c1ccc(C23CCNCC2C3)cc1)N1CCC(Nc2ncc(C(F)(F)F)c(O[C@H]3CCOC3)n2)CC1 (stereo partly drawn) [Compound 159]	0.5 to 2.5	0.5 to 2.5	0.5 to 2.5	
O=S(=O)(c1ccc(C2CNC2)c(F)c1)N1CCC(Nc2ncc(C(F)(F)F)c(O[C@H]3CCOC3)n2)CC1 [Compound 160]	0.5 to 2.5	0.5 to 2.5	2.5 to 10	
Cc1nnc(-c2ccc(S(=O)(=O)N3CCC(Nc4ncc(C(F)(F)F)c(O[C@H]5CCOC5)n4)CC3)cc2)o1 [Compound 161]	0.5 to 2.5	< 0.5	0.5 to 2.5	
O=S(=O)([C@@H]1CCCNC1)N1CCC(Nc2ncc(C(F)(F)F)c(NC3CCCC3)n2)CC1 [Compound 162]	10 to 50	2.5 to 10	2.5 to 10	
O=S(=O)([C@H]1CCCNC1)N1CCC(Nc2ncc(C(F)(F)F)c(NC3CCCC3)n2)CC1 [Compound 163]	0.5 to 2.5	2.5 to 10	2.5 to 10	
O=S(=O)(c1ccc(N2CCNC(C(F)(F)F)C2)nc1)N1CCC(Nc2ncc(C(F)(F)F)c(O[C@H]3CCOC3)n2)CC1 (stereo partly drawn) [Compound 167]	0.5 to 2.5	0.5 to 2.5	0.5 to 2.5	
C[C@H]1CN(c2ccc(S(=O)(=O)N3CCC(Nc4ncc(C(F)(F)F)c(O[C@H]5CCOC5)n4)CC3)cn2)C[C@H](C)N1 [Compound 170]	0.5 to 2.5	< 0.5	0.5 to 2.5	
Cc1cc(S(=O)(=O)N2CCC(Nc3ncc(C(F)(F)F)c(O[C@H]4CCOC4)n3)CC2)ccc1N1CCNCC1 [Compound 171]	0.5 to 2.5	< 0.5	0.5 to 2.5	
O=S(=O)(c1ccc(N2CCNCC2)c(F)c1)N1CCC(Nc2ncc(C(F)(F)F)c(O[C@H]3CCOC3)n2)CC1 [Compound 172]	0.5 to 2.5	0.5 to 2.5	0.5 to 2.5	
O=S(=O)(c1ccc(C2=CCNCC2)nc1)N1CCC(Nc2ncc(C(F)(F)F)c(O[C@H]3CCOC3)n2)CC1 [Compound 173]	0.5 to 2.5	< 0.5	0.5 to 2.5	
O=S(=O)(c1ccc(C2CCNCC2)nc1)N1CCC(Nc2ncc(C(F)(F)F)c(O[C@H]3CCOC3)n2)CC1 [Compound 174]	0.5 to 2.5	< 0.5	0.5 to 2.5	
Cc1cc(S(=O)(=O)N2CCC(Nc3ncc(C(F)(F)F)c(O[C@H]4CCOC4)n3)CC2)cnc1N1CCNCC1 [Compound 175]	0.5 to 2.5	< 0.5	0.5 to 2.5	
O=S(=O)(c1ccc(C2=CCNCC2)cn1)N1CCC(Nc2ncc(C(F)(F)F)c(O[C@H]3CCOC3)n2)CC1 [Compound 176]	0.5 to 2.5	< 0.5	0.5 to 2.5	
O=S(=O)(c1ccc(C2CCNCC2)cn1)N1CCC(Nc2ncc(C(F)(F)F)c(O[C@H]3CCOC3)n2)CC1 [Compound 177]	0.5 to 2.5	< 0.5	0.5 to 2.5	
O=S(=O)(c1ccc(N2CCNCC2)cn1)N1CCC(Nc2ncc(C(F)(F)F)c(O[C@H]3CCOC3)n2)CC1 [Compound 178]	0.5 to 2.5	< 0.5	0.5 to 2.5	
O=S(=O)(c1ccc(N2CC3CC(C2)N3)cc1)N1CCC(Nc2ncc(C(F)(F)F)c(O[C@H]3CCOC3)n2)CC1 [Compound 179]	0.5 to 2.5	< 0.5	0.5 to 2.5	
O=S(=O)(c1ccc(N2CC3CC(C2)N3)nc1)N1CCC(Nc2ncc(C(F)(F)F)c(O[C@H]3CCOC3)n2)CC1 [Compound 180]	0.5 to 2.5	< 0.5	0.5 to 2.5	
O=S(=O)(c1ccc(N2CC3CCC(C2)N3)cc1)N1CCC(Nc2ncc(C(F)(F)F)c(O[C@H]3CCOC3)n2)CC1 [Compound 181]		< 0.5	0.5 to 2.5	0.5 to 2.5
O=S(=O)(c1ccc(N2CC3CCC(C2)N3)nc1)N1CCC(Nc2ncc(C(F)(F)F)c(O[C@H]3CCOC3)n2)CC1 [Compound 182]	0.5 to 2.5	< 0.5	0.5 to 2.5	
O=S(=O)(c1ccc(N2C3CCC2CNC3)nc1)N1CCC(Nc2ncc(C(F)(F)F)c(O[C@H]3CCOC3)n2)CC1 [Compound 183]	0.5 to 2.5	< 0.5	0.5 to 2.5	
O=S(=O)(c1cccc(N2CCNCC2)c1)N1CCC(Nc2ncc(C(F)(F)F)c(O[C@H]3CCOC3)n2)CC1 [Compound 184]	10 to 50	< 0.5	2.5 to 10	
